Data: patent US10428044B2, “3-amino-1,5,6,7-tetrahydro-4H-indol-4-ones” (Bayer Pharma Aktiengesellschaft, priority 2014, dated 2019)

Target: (recombinant) catalytic domain of human Bub1 (amino acids 704-1085) (Homo sapiens (Human), UniProt O43683)
Assay: Bub1 kinase assay (TR-FRET)
Type: biochemical
Settings: ATP 10 μM final, peptide substrate 1 μM final, 60 min at 22° C., read-out: Biological Assay: Bub1 kinase assay median IC50
Summary of the method: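 Readout was TR-FRET between a Eu-labeled antibody complex recognizing phosphoserine and streptavidin-XL665 on the biotinylated peptide, after EDTA stop and 1 h at 22° C. The kinase reaction ran for 60 min at 22° C. Values are means or medians of repeat tests, from 4-parameter fits normalized to enzyme-free and inhibitor-free controls.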

Chain of (recombinant) catalytic domain of human Bub1 (amino acids 704-1085) (O43683 704-1085): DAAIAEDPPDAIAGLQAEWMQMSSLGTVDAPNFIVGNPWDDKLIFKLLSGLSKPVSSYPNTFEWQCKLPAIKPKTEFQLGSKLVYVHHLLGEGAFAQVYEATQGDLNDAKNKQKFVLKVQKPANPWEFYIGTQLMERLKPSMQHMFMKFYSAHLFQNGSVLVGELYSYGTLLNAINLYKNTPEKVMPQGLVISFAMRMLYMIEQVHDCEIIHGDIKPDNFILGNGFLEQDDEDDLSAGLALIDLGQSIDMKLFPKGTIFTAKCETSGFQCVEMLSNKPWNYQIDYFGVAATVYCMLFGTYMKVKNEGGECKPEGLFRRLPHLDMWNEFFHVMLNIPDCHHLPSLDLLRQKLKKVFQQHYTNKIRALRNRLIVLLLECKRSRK

SMILES | IC50 [µM]
O=C1CCCc2[nH]c(-c3ccnc(C(F)F)c3)c(Nc3ccccc3)c21 [Example 401, 2-[2-(difluoromethyl)pyridin-4-yl]-3-(phenylamino)-1,5,6,7-tetrahydro-4H-indol-4-one] | 0.354
CC1(C)CC(=O)c2c([nH]c(-c3ccnc(C(F)F)c3)c2Nc2cccc(F)c2)C1 [Example 402, 2-[2-(difluoromethyl)pyridin-4-yl]-3-[(3-fluorophenyl)amino]-6,6-dimethyl-1,5,6,7-tetrahydro-4H-indol-4-one] | 0.312
CC1(C)CC(=O)c2c([nH]c(-c3ccncc3OC(C)(C)C)c2Nc2ccccc2)C1 [Example 407, 2-(3-tert-butoxypyridin-4-yl)-6,6-dimethyl-3-(phenylamino)-1,5,6,7-tetrahydro-4H-indol-4-one] | 0.6
COc1cnccc1-c1[nH]c2c(c1Nc1ccccc1)C(=O)CCC2 [Example 413, 2-(3-methoxypyridin-4-yl)-3-(phenylamino)-1,5,6,7-tetrahydro-4H-indol-4-one] | 0.0432
CC1(C)CC(=O)c2c([nH]c(-c3ccncc3)c2Nc2ccc(-c3ccccc3)cc2)C1 [Example 414, 3-(biphenyl-4-ylamino)-6,6-dimethyl-2-(pyridin-4-yl)-1,5,6,7-tetrahydro-4H-indol-4-one] | > 20
CC1(C)CC(=O)c2c([nH]c(-c3ccncc3)c2Nc2cccc(Cc3ccccc3)c2)C1 [Example 415, 3-[(3-benzylphenyl)amino]-6,6-dimethyl-2-(pyridin-4-yl)-1,5,6,7-tetrahydro-4H-indol-4-one] | 0.283
CC1(C)CC(=O)c2c([nH]c(-c3ccncc3)c2Nc2ccccc2Cc2ccccc2)C1 [Example 416, 3-[(2-benzylphenyl)amino]-6,6-dimethyl-2-(pyridin-4-yl)-1,5,6,7-tetrahydro-4H-indol-4-one] | 0.689
Cn1nccc1-c1cccc(Nc2c(-c3ccncc3)[nH]c3c2C(=O)CC(C)(C)C3)c1 [Example 417, 6,6-dimethyl-3-{[3-(1-methyl-1H-pyrazol-5-yl)phenyl]amino}-2-(pyridin-4-yl)-1,5,6,7-tetrahydro-4H-indol-4-one] | 0.273
CC1(C)CC(=O)c2c([nH]c(-c3ccncc3)c2Nc2cccc(-c3ccsc3)c2)C1 [Example 418, 6,6-dimethyl-2-(pyridin-4-yl)-3-{[3-(thiophen-3-yl)phenyl]amino}-1,5,6,7-tetrahydro-4H-indol-4-one] | 0.0266
CC1(C)CC(=O)c2c([nH]c(-c3ccncc3)c2Nc2cccc(-c3ccco3)c2)C1 [Example 419, 3-{[3-(furan-2-yl)phenyl]amino}-6,6-dimethyl-2-(pyridin-4-yl)-1,5,6,7-tetrahydro-4H-indol-4-one] | 0.0118
CC1(C)CC(=O)c2c([nH]c(-c3ccncc3)c2Nc2cccc(-c3cccs3)c2)C1 [Example 420, 6,6-dimethyl-2-(pyridin-4-yl)-3-{[3-(thiophen-2-yl)phenyl]amino}-1,5,6,7-tetrahydro-4H-indol-4-one] | 0.0249
CC1(C)CC(=O)c2c([nH]c(-c3ccncc3)c2Nc2cccc(Oc3ccccc3)c2)C1 [Example 421, 6,6-dimethyl-3-[(3-phenoxyphenyl)amino]-2-(pyridin-4-yl)-1,5,6,7-tetrahydro-4H-indol-4-one] | 0.2
CC1(C)CC(=O)c2c([nH]c(-c3ccncc3)c2Nc2cc(-c3ccccc3)ccn2)C1 [Example 422, 6,6-dimethyl-3-[(4-phenylpyridin-2-yl)amino]-2-(pyridin-4-yl)-1,5,6,7-tetrahydro-4H-indol-4-one] | 0.33
CC1(C)CC(=O)c2c([nH]c(-c3ccncc3)c2Nc2cccc(-c3ccccc3)n2)C1 [Example 423, 6,6-dimethyl-3-[(6-phenylpyridin-2-yl)amino]-2-(pyridin-4-yl)-1,5,6,7-tetrahydro-4H-indol-4-one] | 0.0268
CC1(C)CC(=O)c2c([nH]c(-c3ccncc3)c2Nc2ccccc2CO)C1 [Example 426, 3-{[2-(hydroxymethyl)phenyl]amino}-6,6-dimethyl-2-(pyridin-4-yl)-1,5,6,7-tetrahydro-4H-indol-4-one] | 0.00258
CC1(C)CC(=O)c2c([nH]c(-c3ccncc3)c2Nc2ccccc2CCO)C1 [Example 427, 3-{[2-(2-hydroxyethyl)phenyl]amino}-6,6-dimethyl-2-(pyridin-4-yl)-1,5,6,7-tetrahydro-4H-indol-4-one] | 0.0084
C#Cc1cccc(Nc2c(-c3ccncc3)[nH]c3c2C(=O)CC(C)(C)C3)c1 [Example 428, 3-[(3-ethynylphenyl)amino]-6,6-dimethyl-2-(pyridin-4-yl)-1,5,6,7-tetrahydro-4H-indol-4-one] | 0.509
CC1(C)CC(=O)c2c([nH]c(-c3ccncc3)c2Nc2ccccc2C(N)=O)C1 [Example 429, 2-{[6,6-dimethyl-4-oxo-2-(pyridin-4-yl)-4,5,6,7-tetrahydro-1H-indol-3-yl]amino}benzamide] | 0.0709

Next, values leading:

IC50 [µM] | SMILES
0.0093 | COc1cnccc1-c1[nH]c2c(c1Nc1ccccc1)C(=O)CC(C)(C)C2 [Example 403, 2-(3-methoxypyridin-4-yl)-6,6-dimethyl-3-(phenylamino)-1,5,6,7-tetrahydro-4H-indol-4-one]
0.0117 | CCOc1cnccc1-c1[nH]c2c(c1Nc1ccccc1)C(=O)CC(C)(C)C2 [Example 404, 2-(3-ethoxypyridin-4-yl)-6,6-dimethyl-3-(phenylamino)-1,5,6,7-tetrahydro-4H-indol-4-one]
0.0084 | CCCOc1cnccc1-c1[nH]c2c(c1Nc1ccccc1)C(=O)CC(C)(C)C2 [Example 405, 6,6-dimethyl-3-(phenylamino)-2-(3-propoxypyridin-4-yl)-1,5,6,7-tetrahydro-4H-indol-4-one]
0.0537 | CC(C)Oc1cnccc1-c1[nH]c2c(c1Nc1ccccc1)C(=O)CC(C)(C)C2 [Example 406, 6,6-dimethyl-3-(phenylamino)-2-[3-(propan-2-yloxy)pyridin-4-yl]-1,5,6,7-tetrahydro-4H-indol-4-one]
0.00642 | CC1(C)CC(=O)c2c([nH]c(-c3ccncc3OCC(F)F)c2Nc2ccccc2)C1 [Example 408, 2-[3-(2,2-difluoroethoxy)pyridin-4-yl]-6,6-dimethyl-3-(phenylamino)-1,5,6,7-tetrahydro-4H-indol-4-one]
0.00963 | CC1(C)CC(=O)c2c([nH]c(-c3ccncc3OCCO)c2Nc2ccccc2)C1 [Example 409, 2-[3-(2-hydroxyethoxy)pyridin-4-yl]-6,6-dimethyl-3-(phenylamino)-1,5,6,7-tetrahydro-4H-indol-4-one]
0.00355 | COCCOc1cnccc1-c1[nH]c2c(c1Nc1ccccc1)C(=O)CC(C)(C)C2 [Example 410, 2-[3-(2-methoxyethoxy)pyridin-4-yl]-6,6-dimethyl-3-(phenylamino)-1,5,6,7-tetrahydro-4H-indol-4-one]
0.00686 | CC1(C)CC(=O)c2c([nH]c(-c3ccncc3OCC3CC3)c2Nc2ccccc2)C1 [Example 411, 2-[3-(cyclopropylmethoxy)pyridin-4-yl]-6,6-dimethyl-3-(phenylamino)-1,5,6,7-tetrahydro-4H-indol-4-one]
0.0284 | CC1(C)CC(=O)c2c([nH]c(-c3ccncc3OCC(F)(F)F)c2Nc2ccccc2)C1 [Example 412, 6,6-dimethyl-3-(phenylamino)-2-[3-(2,2,2-trifluoroethoxy)pyridin-4-yl]-1,5,6,7-tetrahydro-4H-indol-4-one]
